Measured values taken from patent US10799590B2, “Compositions containing a bitter tastant and at least one sophorolipid, and methods of reducing bitter taste attributed to a bitter tastant in an edible composition” (The United States of America, as Represented by the …, priority 2015, dated 2020).
Entries after “also recorded” stand apart in the source; their conditions may differ.

Assays:
[1] = test system: chorda tympani nerve of wild-type B6 mice; assay: Chorda tympani whole-nerve responses to lingual taste stimuli, wild-type B6 mice; type: in vivo; settings: lingual application (FIG. 6B, 7)
Method: (§1) Mouse model for sweet property and bitter-masking assay. Recordings of chorda tympani (CT) whole-nerve responses: All protocols involving animals were approved by the Institutional Animal Care and Use Committees at the Monell Center prior to the experiments. The study was performed with mice from two strains: C57BL/6J inbred strain (B6; Jackson Laboratory, Bar Harbor, Me.) bearing the wild-type Tas1r3 allele was used as the control, and the C57BL/6J-Tas1r3^tm1Rjm “gene-knockout” strain (T1R3-KO) lacking the entire T1R3 coding region and devoid of T1R3 protein ([…]., et al., Science, 301: 850-853 (2003)). Afferent signals from taste cells are relayed to the brain via three major gustatory nerves: the chorda tympani, glossopharyngeal, and greater superficial petrosal. […] Neural responses resulting from chemical stimulations of the tongue were fed into an amplifier (Grass Instruments, West Warwick, R.I.) and monitored on an oscilloscope and an audio monitor. Whole-nerve responses were integrated with a time constant of 1.0 s and recorded using a computer for later analysis using a PowerLab system (PowerLab/sp4; AD Instruments, Colorado Springs, Colo.). […] To analyze nerve responses to each stimulus, the magnitudes of integrated responses at 5, 10, 15, 20, and 25 s after stimulus onset were measured and averaged. […]

T1R3 = assay: Chorda tympani whole-nerve responses to lingual taste stimuli, T1R3-KO mice; type: in vivo; settings: lingual application (FIG. 6A, 7)
Method: as §1

OC[C@H]1O[C@@H](O[C@@H]2[C@@H](O)[C@H](O)[C@@H](CO)O[C@H]2O)[C@H](O)[C@@H](O)[C@@H]1O [Sophorose, 2-O-β-D-glucopyranosyl-β-D glucopyranose]
chorda tympani responses [1]: present
chorda tympani responses (T1R3): serious deficit; also recorded: nearly absent
